{"source": "paper PMC6003104", "about": "“Discovery of a Short‐Chain Dehydrogenase from Catharanthus roseus that Produces a New Monoterpene Indole Alkaloid” (Chembiochem, 2018)", "biological_target": "T1, vitrosamine synthase (VAS, Cro013448) (Catharanthus roseus, UniProt A0A0C5DR25)", "T1 construct": "N-terminal His6 tag (pOPINF) kept; E. coli SoluBL21; calculated 34469 Da; monomer in solution, dimer in crystal; modelled residues 7-299", "T1 sequence (A0A0C5DR25 entry or part of it)": "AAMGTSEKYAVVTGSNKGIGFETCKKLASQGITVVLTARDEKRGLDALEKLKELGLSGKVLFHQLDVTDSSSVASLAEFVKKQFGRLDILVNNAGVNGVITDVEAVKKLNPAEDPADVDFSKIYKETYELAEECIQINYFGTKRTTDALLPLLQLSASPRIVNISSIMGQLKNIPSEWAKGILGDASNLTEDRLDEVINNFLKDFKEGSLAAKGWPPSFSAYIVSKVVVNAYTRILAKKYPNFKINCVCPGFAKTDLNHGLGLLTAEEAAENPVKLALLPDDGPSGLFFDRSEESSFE", "test": "X-ray crystal structure, […] Å", "assay_type": "binding", "conditions": "co-purified from E. coli as holoenzyme; crystals pH 4.0, 20 °C; active site, next to Ser167/Tyr223/Lys227"}
{"smiles": "NC(=O)c1ccc[n+]([C@@H]2O[C@H](COP(=O)(O)OP(=O)(O)OC[C@H]3O[C@@H](n4cnc5c(N)ncnc54)[C@H](OP(=O)(O)O)[C@@H]3O)[C@@H](O)[C@H]2O)c1", "note": "[NADP+]", "values": [{"measurement": "X-ray crystal structure, 1.55 Å", "value": "the apo enzyme active site also had a high occupancy of NADP^+"}]}
